This note sets out measurements from patent publication EP4818330A1, “PHARMACEUTICAL PREPARATION FOR DIAGNOSING AND TREATING ALZHEIMER'S DISEASE” (Shanghai East Hospital Tongji University, priority 2023, dated 2025).

This data set is described as follows: CCK8 cell viability (toxicity) assay in 293T cell line. It counts as cell-based. To be noted: human, 293T cells, 293T, 24 h, CCK8, three replicate wells. The text has this:
The CCK8 cell viability assay (CCK8) was adopted. Its principle is mainly based on the reduction reaction of WST-8 (chemical name: 2-(2-methoxy-4-nitrophenyl)-3-(4-nitrophenyl)-5-(2,4-disulfophenyl)-2H-tetrazolium monosodium salt). In the presence of living cells, WST-8 can be reduced by dehydrogenases in mitochondria to generate a highly water-soluble orange-yellow formazan product. The color intensity is directly proportional to the number of living cells, wherein the quantity of living cells can be indirectly reflected by measuring the absorbance of formazan products (typically at a wavelength of 450 nm). The CCK-8 assay is widely used in cell proliferation assay, cytotoxicity assay and tumor drug sensitivity test.
In in vitro experiments, the compound stock solution was prepared into 10 mM with DMSO and diluted with a culture medium before use. The 293T cell line was used for preliminary concentration screening of the compound, wherein concentration gradients were set as follows: 5 µmol, 10 µmol, 20 µmol, 40 µmol, 80 µmol and 160 µmol. After the cells were treated with the compound for 24 h, the CCK8 detection kit was used, wherein the cell viability was calculated based on the absorbance values detected by a microplate reader. Data processing was performed using GraphPad Prism software to plot the IC50 curve.

The term viability denotes a read-out of living cells in per cent, often relative to untreated cells. On to `CCOC(=O)c1[nH]c(C)c(CCC(=O)N2CCCC(C(=O)NCCN3CCCCCC3)C2)c1C` (stereo not drawn) [compound of Formula I, ETHYL4-[3-(3-{[2-(AZEPAN-1-YL)ETHYL]CARBAMOYL}PIPERIDIN-1-YL)-3-OXOPROPYL]-3, 5-DIMETHYL-1H-PYRROLE-2-CARBOXYLATE], for which the viability at 24 h, 5 µmol (5 µmol) turned out to be 96.6%. For the same compound, the viability at 24 h, 10 µmol (10 µmol) is 109%. In addition, the viability at 24 h, 20 µmol (20 µmol) worked out at 93.1%. The viability at 24 h, 40 µmol (40 µmol) came to 86.7%. In addition, the viability at 24 h, 80 µmol (80 µmol) worked out at 22.7%. Also, the viability at 24 h, 160 µmol (160 µmol) turned out to be 27.2%.
